Measurements taken from PubChem BioAssay (NCI).
Values joined by “and” are separate entries in the source; they are usually repeats but may differ in a detail not shown here. Equal values may be shown once.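 Cultured in 96-well plates, cells were exposed to test compound for 48 hours across five concentrations. GI50 marks 50% less growth. The concentration for full growth arrest is given as TGI.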

Columns and labels:
Assay in all cases: growth of human tumour cells (NCI), 48 h
[1] = tested on: CAKI-1 renal
[2] = tested on: EKVX NSCLC
[3] = tested on: NCI-H226 lung
[4] = tested on: PC-3 prostate
[5] = tested on: RXF 393 renal
[6] = tested on: SF-539 CNS
[7] = tested on: SW-620 colon
[8] = tested on: UACC-257 melanoma
[9] = tested on: UACC-62 melanoma
[10] = tested on: UO-31 renal

Row | SMILES | GI50 [1] [µM] | TGI [1] | GI50 [2] [µM] | TGI [2] | GI50 [3] [µM] | TGI [3] | GI50 [4] [µM] | TGI [4] | GI50 [5] [nM] | TGI [5] | GI50 [6] [µM] | TGI [6] | GI50 [7] [µM] | TGI [7] | GI50 [8] | TGI [8] | GI50 [9] [µM] | TGI [9] | GI50 [10] [µM] | TGI [10]
1 | O=C(c1nc2ccccc2[nH]1)C1C(c2cccc([N+](=O)[O-])c2)C2CC3CCCCC3N2[C@@]12C(=O)Nc1cc(Cl)ccc12 (stereo partly specified) | 1.43 | 3.94 µM | 2.02 | 6.31 µM | 1.59 | 3.48 µM | 1.3 | 4.4 µM | 1360 | 2.81 µM | 1.69 | 3.19 µM | 1.78 | 4.31 µM | 1.9 µM | 6.09 µM | 1.5 | 3.2 µM | 1.38 | 3.16 µM
2 | CCCCOc1nc2ccccc2cc1C1CNC(=O)c2ccccc2N1 (stereo unspecified) | 3.11 | 23.6 µM | 5.15 | 63 µM | 4.82 | 19.2 µM | 2.95 | 13.9 µM | 2250 | 10.2 µM | 2.3 | 6.86 µM | 2.59 | 21.5 µM | 8.16 µM | > 100 µM | 1.95 | 12.3 µM | 2.83 | 20 µM
3 | CC(=O)O[C@H]1Cc2c([nH]c3ccccc23)[C@@H](c2ccc(Cl)cc2)N1C(=O)CCNC(C)(C)C | 2.77 | 7.01 µM | 3.74 | 7.9 µM | 2.11 | 7.15 µM | 3.48 | 8.12 µM | 2520 | 6.83 µM | 4.69 | 9.12 µM | 4.12 | 8.8 µM | 4.99 µM | 9.66 µM | 3.92 | 8.28 µM | 1.45 | 6.08 µM
4 | CCCCCCCC(=O)O[C@H]1[C@H]2[C@@H](CC1(C)C)C(=O)[C@]13O[C@H]1C(=O)[C@]1(CO1)[C@]23C |  | 5.82 µM and 5.58 µM | 36.9 | 62.1 µM and 10 µM | 20.2 | 26.8 µM and 48.9 µM |  | 30.8 µM | 1930 | 3.97 µM and 5.31 µM | 7.72 | 12.7 µM and 21.3 µM | 1.39 | 3.27 µM and 2.74 µM | 5.03 µM | 10.8 µM and 7.04 µM | 6.47 | 20.8 µM and 7.29 µM | 5.73 | 12.9 µM and 28.2 µM
5 | Cc1cccc(Cc2cnc(NC(=O)/C=C/c3ccco3)s2)c1 | 0.0459 | > 100 µM | 0.0581 | > 100 µM | 0.797 | > 23.1 µM | 0.04 | > 100 µM | 22.1 | 0.0643 µM | 0.026 | 0.0752 µM | 0.0385 | > 100 µM | > 100 µM | > 100 µM | 0.0542 | > 100 µM | 0.0847 | > 100 µM
6 | S=C1NC2=C(CCOc3c2ccc2ccccc32)C(c2ccc(Cl)cc2)N1 (stereo unspecified) | 32.5 | 72.5 µM | 20.2 | 86 µM | 17 | 49.5 µM | 35.8 | > 100 µM | 39000 | > 100 µM | 20.8 | 56.9 µM | 43.7 | > 100 µM | 45.4 µM | > 100 µM | 21.7 | 76.4 µM | 46.2 | > 100 µM
7 | COc1ccc(C(=O)C(CN(C)C)c2ccccc2)cc1 (stereo unspecified) | 2.08 | 7.82 µM | 14.1 | 34.1 µM | 2.67 | 8.59 µM | 4.6 | 17.4 µM | 1320 | 3.1 µM | 5.07 | 16.6 µM | 0.496 | 1.57 µM | 2.39 µM | 10.7 µM | 2.81 | 8.22 µM | 1.43 | 2.74 µM
8 | N#CSc1cc(-c2nc3ccccc3o2)ccc1N | 25.5 | 61.9 µM | 5 | 37.2 µM | 5.23 | 37.8 µM | 12.5 | 81.6 µM | 965 | 26.3 µM | 22.4 | 45.3 µM | 25.7 | > 86.2 µM | 1.77 µM | 26.4 µM | 13.6 | 30.8 µM | 22.6 | > 59.4 µM
9 | COc1cc2cc(C(=O)N3C[C@H](CCl)c4c3cc(O)c3ccccc43)[nH]c2c(OC)c1OC | < 0.01 |  | 0.139 | 0.953 µM and 0.641 µM | 1.79 | 0.504 µM and 3.38 µM | 0.0355 | 2.27 µM and 18.9 µM |  | 0.194 µM |  | 0.192 µM | < 0.01 |  | 0.135 µM and 0.0459 µM |  | 0.0351 |  |  | 0.543 µM
10 | CCN(CC)c1ccc(/C=C2/NC(=O)NC2=O)cc1 | 6.19 | > 100 µM | 0.753 | > 100 µM | > 95.2 | > 100 µM | 12.1 | > 100 µM | 4340 | 17.5 µM | 5.57 | 53.6 µM | 3.47 | > 100 µM | 4.01 µM | > 100 µM | 1.8 | 12.9 µM |  | > 100 µM
11 | c1ccc(-c2nn(-c3ccccc3)[n+](-c3ccccc3-c3ccccc3)n2)cc1 | 16.5 | 89.9 µM | 0.687 | > 74.6 µM | 2.83 | > 100 µM | 0.37 | 6.18 µM | 2020 | 16.4 µM | 2.03 | 23.4 µM | 1.4 | > 73.1 µM | 0.339 µM | 2.72 µM | 0.74 | 14.9 µM | 11.6 | > 77.6 µM
12 | CCn1c(-c2nonc2N)nc2c(C#CC(C)(C)O)ncc(OCC3CCNCC3)c21 | 17.2 | > 25 µM | > 25 | > 25 µM | > 15.2 | > 25 µM | 7.48 | > 25 µM | 2540 | 7.28 µM | 3.36 | > 20.7 µM | 10.1 | > 25 µM | > 20.7 µM | > 25 µM | 8.02 | > 25 µM | 6.42 | 18.5 µM
13 | O=C(O)c1ccccc1/C=C1/Nc2ccccc2C1=O |  | > 100 µM |  | > 100 µM |  | > 100 µM |  | > 100 µM |  | > 100 µM |  | > 100 µM |  | > 100 µM |  | > 100 µM |  | > 100 µM |  | > 100 µM
14 | O=C(CN1CCN(c2cc3c(cc2F)c(=O)c(C(=O)O)cn3C2CC2)CC1)Nc1ccc(C(=O)/C=C/c2ccccc2)cc1 | 1.76 | 5.32 µM |  |  | 6.83 | > 100 µM | 3.16 | > 100 µM | 2500 | > 100 µM | 3.6 | > 100 µM | 3.8 | > 100 µM | 3.9 µM | 90.8 µM | 3.71 | > 100 µM | 2.78 | 45.4 µM
15 | CCOC(=O)Nc1ccc2nc(Sc3ccc(Cl)cc3)sc2c1 | 1.95 | 42 µM | 8.28 | > 82.6 µM | 7.9 | 76.3 µM | 4.27 | > 100 µM | 2990 | 18.8 µM | 2.92 | 22.1 µM | 0.488 | > 100 µM | 9.87 µM | 45.2 µM | 1.6 | 48.3 µM | 9.57 | 79.4 µM
16 | Nc1cc2ccncc2c2ccccc12 | 18.4 | > 100 µM | 19.3 | > 100 µM | 5.75 | 73.6 µM | 16.2 | > 100 µM | 10800 | 29 µM | 13.4 | 34 µM | 5.19 | 89 µM | 13.6 µM | 29.7 µM | 13.5 | 38.7 µM | 4.1 | 45.6 µM
17 | NS(=O)(=O)c1ccc(N=Nc2cc3ccccc3c(C(=O)O)c2O)cc1 |  | > 100 µM |  | > 100 µM |  | > 100 µM |  | > 90.3 µM |  | > 70.1 µM |  | > 100 µM |  | > 100 µM |  | > 92.3 µM |  | 97 µM |  | 99 µM
18 | COC(=O)CCCCCCCCC(=O)c1c(C)[nH]c(/C=C2\N=C(c3ccc[nH]3)C=C2OC)c1C | 26.6 | > 87.7 µM | > 100 | > 100 µM | 8.72 | > 100 µM | 4.88 | > 100 µM | 31300 | > 100 µM | > 55.1 | > 100 µM | > 62 | > 100 µM | 14.4 µM | 87.8 µM | 10.7 | > 82.9 µM | 30.5 | > 73.6 µM
19 | CCOC(=O)CCC(NC(=O)c1ccc(Nc2nc3cc(N)cc(N)c3nc2-c2ccccc2)cc1)C(=O)OCC (stereo unspecified) | > 52.6 | > 100 µM | > 53.8 | > 100 µM | > 51.6 | > 74.1 µM | 20.5 | 89 µM | 43400 | > 92.6 µM | 27.3 | > 100 µM | 45.6 | > 100 µM | 6.04 µM | 13.7 µM | 12.6 | > 38.2 µM | > 46.6 | > 87.1 µM
20 | COc1ccc2c(c1)/C(=N/OC(C)=O)c1c-2c(Nc2ccc(/C(C)=N/OC(C)=O)cc2)nc2ccccc12 | 31.8 | 98.2 µM | 82.1 | > 100 µM | > 100 | > 100 µM | 18.8 | 38.4 µM | > 100000 | > 100 µM | > 100 | > 100 µM | 36.5 | > 100 µM | > 100 µM | > 100 µM | 25.5 | 63.8 µM | 72.8 | > 100 µM
21 | C=C(C)[C@@H]1CC[C@@H]2C(=CC[C@]3(C)C([C@H](C)CC/C=C(/C)C(=O)O)CC[C@@]23C)[C@@]1(C)CCC(=O)O (stereo partly specified) |  | 68.4 µM |  | > 100 µM |  | 83.1 µM |  | 65.9 µM |  | 35.1 µM |  | 89 µM |  | > 100 µM |  | 54.2 µM |  | 39.4 µM |  | 30.7 µM
22 | COc1ccc(OC)c(/C=C/C(=O)c2ccc(SC)cc2)c1 | 2.39 | 18.5 µM | 16.8 | 39.4 µM | 28.9 | 88.4 µM | 3.49 | 14.9 µM | 16200 | 37.3 µM | 2.55 | 6.99 µM | 3.45 | > 100 µM | 16.9 µM | 33.8 µM | 15 | 29.1 µM | 15.5 | 30.7 µM
23 | Cn1ccnc1C(=O)/C=C/c1ccc(CC(=O)Nc2cc(F)c(F)c(F)c2)cc1 | 2.27 | 7.54 µM | 3.51 | 7.41 µM | 3.4 | 12.3 µM | 1.26 | 5.65 µM | 941 | 4.11 µM | 1.5 | 4.68 µM | 1.46 | 8.98 µM | 3.59 µM | 10.1 µM | 2.14 | 9.59 µM | 1.7 | 4.96 µM
24 | N#CCCCCCn1c2ccccc2c2c3c(c4c5ccccc5[nH]c4c21)C(=O)N(O)C3=O | 1.85 | 4.01 µM | 1.77 | 5.63 µM | 1.93 | 4.74 µM | 1.39 | 4.51 µM | 1700 | 4.69 µM | 0.632 | 2.05 µM | 1.01 | 34.8 µM | 1.95 µM | 5.45 µM |  |  |  | 
25 | CC1CCCc2c(CC3CC(=O)NC(=O)C3)nc(N)nc21 (stereo unspecified) |  | > 100 µM |  | > 100 µM |  | > 100 µM |  | > 100 µM |  | > 100 µM |  | > 100 µM |  | > 100 µM |  | > 100 µM |  | > 100 µM |  | 
26 | Cn1cc(C2=C(c3cccc(Cl)c3)C(=O)NC2=O)c2ccccc21 | > 17 | > 25 µM |  |  | > 20.6 | > 25 µM | 18.3 | > 25 µM | 8220 | > 25 µM | > 25 | > 25 µM | > 25 | > 25 µM | 5.46 µM | 17.7 µM | 5.19 | 12.7 µM | 8.3 | > 25 µM
